**Q.** What does the source list for O=Cc1ccc2ccccc2c1?
**A.** solubility (mole fraction) (in ethanol, 283.15 K): 0.0161; solubility (mole fraction) (in ethanol, 288.15 K): 0.0245; solubility (mole fraction) (in ethanol, 293.15 K): 0.0377; solubility (mole fraction) (in ethanol, 298.15 K): 0.0653; solubility (mole fraction) (in ethanol, 303.15 K): 0.11; solubility (mole fraction) (in ethanol, 308.15 K): 0.191; solubility (mole fraction) (in ethanol, 313.15 K): 0.314; solubility (mole fraction) (in isopropanol, 283.15 K): 0.0115; solubility (mole fraction) (in isopropanol, 288.15 K): 0.0201; solubility (mole fraction) (in isopropanol, 293.15 K): 0.0404; solubility (mole fraction) (in isopropanol, 298.15 K): 0.0557; solubility (mole fraction) (in isopropanol, 303.15 K): 0.0908; solubility (mole fraction) (in isopropanol, 308.15 K): 0.144; solubility (mole fraction) (in isopropanol, 313.15 K): 0.237; solubility (mole fraction) (in methanol, 283.15 K): 0.00592; solubility (mole fraction) (in methanol, 288.15 K): 0.00987; solubility (mole fraction) (in methanol, 293.15 K): 0.0163; solubility (mole fraction) (in methanol, 298.15 K): 0.0274; solubility (mole fraction) (in methanol, 303.15 K): 0.0418; solubility (mole fraction) (in methanol, 308.15 K): 0.0696; solubility (mole fraction) (in methanol, 313.15 K): 0.119; solubility (mole fraction) (in n-butanol, 283.15 K): 0.0195; solubility (mole fraction) (in n-butanol, 288.15 K): 0.0281; solubility (mole fraction) (in n-butanol, 293.15 K): 0.0425; solubility (mole fraction) (in n-butanol, 298.15 K): 0.0561; solubility (mole fraction) (in n-butanol, 303.15 K): 0.0758; solubility (mole fraction) (in n-butanol, 308.15 K): 0.117; solubility (mole fraction) (in n-butanol, 313.15 K): 0.164; solubility (mole fraction) (in n-heptane, 283.15 K): 0.00944; solubility (mole fraction) (in n-heptane, 288.15 K): 0.0128; solubility (mole fraction) (in n-heptane, 293.15 K): 0.0164; solubility (mole fraction) (in n-heptane, 298.15 K): 0.0192; solubility (mole fraction) (in n-heptane, 303.15 K): 0.0255; solubility (mole fraction) (in n-heptane, 308.15 K): 0.0345; solubility (mole fraction) (in n-heptane, 313.15 K): 0.0415; solubility (mole fraction) (in n-hexane, 283.15 K): 0.00727; solubility (mole fraction) (in n-hexane, 288.15 K): 0.00923; solubility (mole fraction) (in n-hexane, 293.15 K): 0.0128; solubility (mole fraction) (in n-hexane, 298.15 K): 0.0159; solubility (mole fraction) (in n-hexane, 303.15 K): 0.0189; solubility (mole fraction) (in n-hexane, 308.15 K): 0.026; solubility (mole fraction) (in n-hexane, 313.15 K): 0.0314

Reference: BigSolDB 2.1
